Source: ChEMBL document CHEMBL1201862, “PubChem BioAssay data set” (2004)
Calls of active or inactive are those of the source.

How the values were obtained:
[1] = Luminescence Cell-Based Dose Response HTS to Identify Inhibitors of 5'UTR Stem-Loop Driven Prion Protein mRNA Translation in H4 Neuroglioblastoma Cells. [Related pubchem assays: 1827 (Project Summary), 1813 (Primary HTS)]; format: functional
[2] = inhibitors of SNCA 5'UTR-driven reporter translation, confirmation, H4 neuroglioma cells, luminescence (AID 1988); format: functional, cell-based
[3] = inhibitors of firefly luciferase expression or activity, dose response, H4 neuroglioma cells, luminescence (AID 1990); format: functional, cell-based
cells [4] = format: functional, cell-based
[5] = biological target: T1, Nuclear receptor subfamily 0 group B member 1 (Homo sapiens, UniProt P51843); format: functional, cell-based;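 note: HEK293T cells transfected with SF-1 and DAX-1 plus StAR promoter luciferase reporter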
T1 sequence (P51843 whole entry): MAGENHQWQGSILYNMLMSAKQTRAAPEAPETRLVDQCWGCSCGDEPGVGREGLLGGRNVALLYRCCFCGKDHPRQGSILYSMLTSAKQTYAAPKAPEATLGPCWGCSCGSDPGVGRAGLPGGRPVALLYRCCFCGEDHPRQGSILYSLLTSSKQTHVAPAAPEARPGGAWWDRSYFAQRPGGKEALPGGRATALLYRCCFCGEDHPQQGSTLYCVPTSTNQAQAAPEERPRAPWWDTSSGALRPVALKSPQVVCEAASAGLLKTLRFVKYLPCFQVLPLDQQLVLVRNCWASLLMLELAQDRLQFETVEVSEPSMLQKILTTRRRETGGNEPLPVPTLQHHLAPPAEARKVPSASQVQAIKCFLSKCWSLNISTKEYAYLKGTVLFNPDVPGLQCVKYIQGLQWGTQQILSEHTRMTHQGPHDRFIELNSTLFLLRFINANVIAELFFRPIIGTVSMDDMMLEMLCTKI

cells [6] = format: functional, cell-based; remark: listed apart in the source
cells [7] = format: functional, cell-based; remark: listed apart in the source
[8] = biological target: T2, Mannose-6-phosphate isomerase (Homo sapiens, UniProt P34949); experiment: human PMI inhibitors, high substrate, primary screen, biochemical, fluorescence intensity, high mannose 6-phosphate (AID 1220)
T2 sequence (P34949 whole entry): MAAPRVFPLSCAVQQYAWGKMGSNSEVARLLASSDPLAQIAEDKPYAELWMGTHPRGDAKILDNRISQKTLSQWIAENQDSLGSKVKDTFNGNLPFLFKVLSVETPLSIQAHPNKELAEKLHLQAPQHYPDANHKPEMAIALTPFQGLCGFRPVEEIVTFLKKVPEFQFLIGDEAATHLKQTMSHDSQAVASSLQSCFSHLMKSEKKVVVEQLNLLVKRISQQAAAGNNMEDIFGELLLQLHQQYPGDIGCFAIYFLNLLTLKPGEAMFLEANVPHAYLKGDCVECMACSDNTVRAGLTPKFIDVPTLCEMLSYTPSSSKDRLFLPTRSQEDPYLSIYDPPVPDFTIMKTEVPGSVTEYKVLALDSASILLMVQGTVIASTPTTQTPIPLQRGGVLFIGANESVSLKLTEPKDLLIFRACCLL

[9] = biological target: SWI/SNF-related matrix-associated actin-dependent regulator of chromatin subfamily A member 2 (Homo sapiens, UniProt P51531); experiment: Luminescence-based cell-based high throughput dose response assay to identify activators of the function of SWI/SNF related, matrix associated, actin dependent regulator of chromatin, subfamily a, member 2 (SMARCA2, BRM).; format: functional
Sequence of SWI/SNF-related matrix-associated actin-dependent regulator of chromatin subfamily A member 2 (P51531 whole entry): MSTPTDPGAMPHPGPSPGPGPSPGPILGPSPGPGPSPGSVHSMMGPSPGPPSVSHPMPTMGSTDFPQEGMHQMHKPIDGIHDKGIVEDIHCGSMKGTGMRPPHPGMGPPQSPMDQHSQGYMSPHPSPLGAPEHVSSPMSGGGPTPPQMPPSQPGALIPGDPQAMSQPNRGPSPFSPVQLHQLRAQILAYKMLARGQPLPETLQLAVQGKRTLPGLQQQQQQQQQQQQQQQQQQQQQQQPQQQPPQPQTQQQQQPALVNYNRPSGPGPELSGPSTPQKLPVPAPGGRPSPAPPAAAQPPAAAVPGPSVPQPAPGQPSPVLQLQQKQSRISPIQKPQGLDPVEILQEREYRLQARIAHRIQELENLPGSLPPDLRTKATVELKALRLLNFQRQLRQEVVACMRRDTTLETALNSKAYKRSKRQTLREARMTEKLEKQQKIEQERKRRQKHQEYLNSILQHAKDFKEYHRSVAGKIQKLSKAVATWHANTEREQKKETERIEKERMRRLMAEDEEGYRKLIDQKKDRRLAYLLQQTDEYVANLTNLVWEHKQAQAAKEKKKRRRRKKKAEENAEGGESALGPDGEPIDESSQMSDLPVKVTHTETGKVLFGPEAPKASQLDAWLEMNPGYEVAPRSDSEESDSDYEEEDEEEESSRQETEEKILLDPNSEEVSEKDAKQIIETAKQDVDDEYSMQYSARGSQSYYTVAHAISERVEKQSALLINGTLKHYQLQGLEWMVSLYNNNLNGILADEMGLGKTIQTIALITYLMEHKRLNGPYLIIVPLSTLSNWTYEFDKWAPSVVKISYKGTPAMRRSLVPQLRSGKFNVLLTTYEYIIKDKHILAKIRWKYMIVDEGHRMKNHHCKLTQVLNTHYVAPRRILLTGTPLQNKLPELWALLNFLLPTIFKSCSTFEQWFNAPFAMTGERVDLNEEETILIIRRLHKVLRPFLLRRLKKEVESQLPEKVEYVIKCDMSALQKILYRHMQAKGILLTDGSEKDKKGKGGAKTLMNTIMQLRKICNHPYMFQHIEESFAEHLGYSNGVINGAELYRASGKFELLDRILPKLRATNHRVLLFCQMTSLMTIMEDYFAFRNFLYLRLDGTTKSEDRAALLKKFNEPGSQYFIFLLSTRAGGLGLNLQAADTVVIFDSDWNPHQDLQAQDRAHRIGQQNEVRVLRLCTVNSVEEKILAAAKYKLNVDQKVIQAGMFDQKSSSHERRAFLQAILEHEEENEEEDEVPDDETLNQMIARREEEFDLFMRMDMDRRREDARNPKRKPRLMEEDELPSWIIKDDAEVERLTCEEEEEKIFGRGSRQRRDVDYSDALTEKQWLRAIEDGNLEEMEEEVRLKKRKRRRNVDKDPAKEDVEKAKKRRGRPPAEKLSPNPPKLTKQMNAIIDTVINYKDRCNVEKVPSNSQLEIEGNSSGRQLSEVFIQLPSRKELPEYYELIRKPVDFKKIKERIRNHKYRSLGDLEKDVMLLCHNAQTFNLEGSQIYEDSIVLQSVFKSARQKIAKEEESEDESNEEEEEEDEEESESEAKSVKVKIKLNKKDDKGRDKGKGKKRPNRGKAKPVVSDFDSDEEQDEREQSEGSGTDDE

Protein RecA = biological target: T3, Protein RecA (Mycobacterium tuberculosis, UniProt P9WHJ3); experiment: Fluorescence Cell-Free Homogeneous Dose Retest to Identify Inhibitors of RecA-Intein Splicing Activity. [Related pubchem assays (depositor defined):AID2097, AID2223, AID489010, AID492950]; format: functional
T3 sequence (P9WHJ3 whole entry): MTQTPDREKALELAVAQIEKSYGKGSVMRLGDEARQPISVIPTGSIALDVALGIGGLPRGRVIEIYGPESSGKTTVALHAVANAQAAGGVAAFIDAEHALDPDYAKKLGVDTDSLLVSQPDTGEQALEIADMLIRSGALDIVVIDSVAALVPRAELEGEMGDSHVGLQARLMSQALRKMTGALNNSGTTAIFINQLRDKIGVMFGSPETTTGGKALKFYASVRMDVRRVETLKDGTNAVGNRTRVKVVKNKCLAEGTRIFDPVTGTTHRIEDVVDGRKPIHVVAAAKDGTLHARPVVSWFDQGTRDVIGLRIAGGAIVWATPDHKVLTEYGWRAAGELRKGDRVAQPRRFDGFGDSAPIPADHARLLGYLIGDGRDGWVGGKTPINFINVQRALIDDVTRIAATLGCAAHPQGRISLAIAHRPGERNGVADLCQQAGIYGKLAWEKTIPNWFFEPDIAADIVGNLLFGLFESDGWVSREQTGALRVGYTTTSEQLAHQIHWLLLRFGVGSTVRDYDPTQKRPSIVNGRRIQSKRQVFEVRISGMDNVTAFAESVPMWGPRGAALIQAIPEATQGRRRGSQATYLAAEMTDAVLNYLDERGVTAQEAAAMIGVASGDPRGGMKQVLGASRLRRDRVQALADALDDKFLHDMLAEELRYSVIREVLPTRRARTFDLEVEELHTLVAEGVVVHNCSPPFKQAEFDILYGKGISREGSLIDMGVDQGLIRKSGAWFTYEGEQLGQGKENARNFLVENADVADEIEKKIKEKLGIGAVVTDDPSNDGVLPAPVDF

[10] = Counterscreen for activators of the function of SWI/SNF related, matrix associated, actin dependent regulator of chromatin, subfamily a, member 2 (SMARCA2, BRM): Luminescence-based cell-based high throughput dose response assay to identify non-selective compounds using the VP16 reporter assay.; format: functional
[11] = biological target: T4, Replicative DNA helicase DnaB (Mycobacterium tuberculosis, UniProt P9WMR3); experiment: DnaB intein splicing inhibitors, dose response, biochemical, cell-free fluorescence (AID 449749); format: functional
T4 sequence (P9WMR3 whole entry): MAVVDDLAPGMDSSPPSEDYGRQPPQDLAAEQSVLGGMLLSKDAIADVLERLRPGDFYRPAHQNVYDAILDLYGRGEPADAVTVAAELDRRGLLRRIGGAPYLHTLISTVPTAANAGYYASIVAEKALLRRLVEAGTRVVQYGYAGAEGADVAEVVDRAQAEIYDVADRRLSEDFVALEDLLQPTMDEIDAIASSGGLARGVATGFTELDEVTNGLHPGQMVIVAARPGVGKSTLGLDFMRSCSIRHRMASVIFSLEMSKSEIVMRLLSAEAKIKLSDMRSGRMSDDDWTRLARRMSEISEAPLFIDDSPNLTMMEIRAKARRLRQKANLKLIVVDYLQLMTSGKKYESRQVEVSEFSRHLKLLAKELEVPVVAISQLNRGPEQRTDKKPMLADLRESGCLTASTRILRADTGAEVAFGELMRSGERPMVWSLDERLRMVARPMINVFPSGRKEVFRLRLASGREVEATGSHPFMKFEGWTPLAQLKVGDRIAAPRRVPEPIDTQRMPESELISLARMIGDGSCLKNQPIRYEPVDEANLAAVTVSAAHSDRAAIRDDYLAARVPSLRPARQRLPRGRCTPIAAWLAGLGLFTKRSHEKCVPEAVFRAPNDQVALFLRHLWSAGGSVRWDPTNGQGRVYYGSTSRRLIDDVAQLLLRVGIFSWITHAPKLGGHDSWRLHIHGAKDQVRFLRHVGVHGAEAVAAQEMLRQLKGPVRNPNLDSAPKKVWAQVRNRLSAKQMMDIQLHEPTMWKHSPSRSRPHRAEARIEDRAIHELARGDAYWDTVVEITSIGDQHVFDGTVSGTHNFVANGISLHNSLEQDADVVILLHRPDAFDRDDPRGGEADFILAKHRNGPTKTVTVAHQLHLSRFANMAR

cells [12] = format: functional
[13] = Vero E6 cell cytotoxicity, dose response, cytotoxicity control for non-replicating M. tuberculosis project, secondary assay (AID 492998); format: functional, VeroE6; settings: Vero C1008
HEK293 = experiment: inhibitors of LMP1-driven NF-kB reporter, dose response, cell-based, HEK293, luciferase, cherry-pick (AID 588343); format: functional; settings: Homo sapiens
[14] = biological target: T5, Heat shock factor protein 1 (Mus musculus, UniProt P38532); experiment: inhibition of MG132-induced HSE-luciferase signal, confirmation, cell-based, NIH3T3, luminescence, dose retest (AID 2382); format: functional;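 note: NIH3T3 fibroblasts with HSF1-driven luciferase reporter stressed by proteasome inhibitor MG132; luminescence from HSF1-driven luciferase expression after 8 hours of MG132 stress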
T5 sequence (P38532 whole entry): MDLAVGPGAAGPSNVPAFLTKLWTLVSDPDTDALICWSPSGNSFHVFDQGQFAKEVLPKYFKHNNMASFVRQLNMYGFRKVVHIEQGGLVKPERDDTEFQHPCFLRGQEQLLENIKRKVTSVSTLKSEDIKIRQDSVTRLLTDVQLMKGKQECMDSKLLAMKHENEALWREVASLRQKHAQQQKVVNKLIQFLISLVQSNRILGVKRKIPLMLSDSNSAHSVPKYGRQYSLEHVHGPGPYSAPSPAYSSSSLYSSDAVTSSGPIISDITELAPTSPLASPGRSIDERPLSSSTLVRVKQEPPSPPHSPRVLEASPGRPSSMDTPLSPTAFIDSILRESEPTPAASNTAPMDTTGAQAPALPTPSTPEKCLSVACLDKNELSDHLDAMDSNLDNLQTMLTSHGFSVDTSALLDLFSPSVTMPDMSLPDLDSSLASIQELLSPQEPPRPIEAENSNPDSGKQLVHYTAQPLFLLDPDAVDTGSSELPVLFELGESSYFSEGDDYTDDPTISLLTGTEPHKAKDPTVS

cells [15] = format: functional, cell-based; remark: listed apart in the source
cells [16] = format: functional, cell-based; remark: listed apart in the source
[17] = ADAM10 protease inhibitors, dose response, selectivity assay for ADAM17 exosite inhibitor project, biochemical, FRET peptide substrate, recombinant human ADAM10 (AID 743259);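 note: ADAM10 enzyme cleaving a FRET peptide substrate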
fMet-Leu-Phe receptor = biological target: T6, fMet-Leu-Phe receptor (Homo sapiens, UniProt P21462); experiment: FPR ligands, dose response (AID 519); format: functional
T6 sequence (P21462 whole entry): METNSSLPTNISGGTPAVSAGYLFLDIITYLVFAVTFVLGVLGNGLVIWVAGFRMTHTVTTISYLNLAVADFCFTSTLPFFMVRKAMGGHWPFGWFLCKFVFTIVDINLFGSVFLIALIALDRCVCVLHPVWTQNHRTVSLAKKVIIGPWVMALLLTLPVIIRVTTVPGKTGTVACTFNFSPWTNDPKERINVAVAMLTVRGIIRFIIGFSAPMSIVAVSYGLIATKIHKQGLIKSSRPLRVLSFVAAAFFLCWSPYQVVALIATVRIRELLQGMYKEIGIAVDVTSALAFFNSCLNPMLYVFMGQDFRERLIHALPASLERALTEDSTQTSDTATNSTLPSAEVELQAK

[18] = biological target: T7, Adenosylmethionine-8-amino-7-oxononanoate aminotransferase (Mycobacterium tuberculosis, UniProt P9WQ81); experiment: Mycobacterium tuberculosis BioA enzyme inhibitor Measured in Biochemical System Using Plate Reader - 2163-02_Inhibitor_Dose_CherryPick_Activity.; format: functional, Mycobacterium tuberculosis UT205
T7 sequence (P9WQ81 whole entry): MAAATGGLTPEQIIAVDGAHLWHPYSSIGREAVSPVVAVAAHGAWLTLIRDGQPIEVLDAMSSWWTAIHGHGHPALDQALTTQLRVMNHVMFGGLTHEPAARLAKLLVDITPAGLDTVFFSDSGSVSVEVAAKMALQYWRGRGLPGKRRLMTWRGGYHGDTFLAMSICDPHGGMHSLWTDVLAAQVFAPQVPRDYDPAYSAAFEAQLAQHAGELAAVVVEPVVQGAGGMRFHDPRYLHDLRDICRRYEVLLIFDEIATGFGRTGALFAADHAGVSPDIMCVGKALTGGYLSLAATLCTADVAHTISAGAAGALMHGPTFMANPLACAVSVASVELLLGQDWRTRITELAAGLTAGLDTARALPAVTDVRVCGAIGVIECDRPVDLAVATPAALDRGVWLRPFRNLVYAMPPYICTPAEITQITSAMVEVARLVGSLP

[19] = CEM21 lymphoblast cell cytotoxicity, dose response, cytotoxicity control for viral fusion inhibitor project, CellTiter-Glo luminescence, cherry-picked (AID 652042); format: functional, cell-based;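 note: potency for signal decrease meaning cytotoxicity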
[20] = inhibitors of HIV Env-driven cell fusion, dose response, cherry-pick (AID 652057); format: functional, cell-based
[21] = ZM109 Env clade C HIV-1 fusion inhibitors, dose response, HeLa effector, CEM target cells, luciferase, cherry-pick (AID 652058); format: functional, cell-based
[22] = inhibitors of clade B AD8 Env fusion, dose response, cell-based, cherry-pick (AID 652062); format: functional;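 note: luciferase signal from cell-cell fusion driven by HIV-1 clade B AD8 Env; potency is for inhibitors of fusion seen as a drop in luminescence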

Cc1c(C(=O)OCC(C)C)[nH]c2c1C(=O)CC(c1ccco1)C2 (configuration not stated)
EC50 [1]: 1.5 µM (active) | EC50 [2]: 0.212 µM (active) | EC50 [3]: 1.95 µM (active) | IC50 (cells [4]): > 67.5 µM (inactive) | IC50 [5]: > 67.5 µM (inactive)

c1ccc(CCN2CN(CCCN3CCOCC3)c3nc4ccccc4n3C2)cc1
EC50 (cells [6]): > 29.9 µM (inactive) | IC50 (cells [7]): > 29.9 µM (inactive)

CCOC(=O)C(Nc1ccc2ccccc2c1)C(=O)OCC
IC50 [8]: > 50 µM (not active) | EC50 [9]: > 91.2 µM (inactive) | EC50 (Protein RecA): 13 µM (active) | EC50 [10]: > 91.2 µM (inactive) | AC50 [11]: 5.7 µM (active) | IC50 (cells [12]): 4.41 µM (active) | CC50 [13]: > 20 µM (active)

CC(C)Oc1ccc(C(=O)Nc2nnc(SCC(=O)N3CCOCC3)s2)cc1
IC50 (cells [4]): > 67.5 µM (inactive) | IC50 [5]: > 67.5 µM (inactive) | AC50 (HEK293): 0.897 µM (active)

COc1ccc(C2NC(S)=NC3=C2CCCC3=C2SCCS2)cc1 (configuration not stated)
EC50 [14]: > 195 µM (not active) | EC50 (cells [15]): > 350 µM (not active) | IC50 (cells [4]): > 67.5 µM (inactive) | EC50 (cells [16]): 10.6 µM (active) | IC50 [5]: 7.9 µM (active)

C[C@H](NC(=O)c1[nH]cnc1C(=O)NC(c1ccccc1)c1ccccc1)C(=O)OCc1ccccc1
IC50 [17]: > 69.5 µM (inactive)

COc1cccc(-c2nc(CS(=O)(=O)CC(=O)NCCC(C)C)c(C)o2)c1
Ki (fMet-Leu-Phe receptor): > 66.7 µM (inactive)

Cc1ccc(F)c(NC(=O)C2CCCCC2C(=O)O)c1 (configuration not stated)
Ki (fMet-Leu-Phe receptor): > 66.7 µM (inactive)

CCN(CC)c1ccc2cc(C(=O)c3cccs3)c(=O)oc2c1
EC50 [9]: > 91 µM (inactive) | EC50 [10]: > 91 µM (inactive) | AC50 [18]: 0.195 µM (active)

O=C(C[C@H]1C=C[C@@H](NC(=O)c2cccc(F)c2)[C@@H](CO)O1)NCc1ccc(Oc2ccccc2)cc1
AC50 [19]: 46.3 µM (active) | AC50 [20]: 0.988 µM (active) | AC50 [21]: 0.725 µM (active) | AC50 [22]: 2.83 µM (active)
